Measured values reported in PubChem BioAssay (NCI).
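Five compound concentrations were applied to cells in 96-well plates for 48 hours; endpoints were derived by simple linear interpolation of the resulting dose-response curve. Definition used: TGI = concentration required for complete inhibition of growth.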

Tests used:
Assay in all cases: DTP human tumour cell line panel, 48 h
MDA-N = tested on: MDA-N
LOX IMVI melanoma = tested on: LOX IMVI melanoma
U251 CNS = tested on: U251 CNS
KM12 colon = tested on: KM12 colon
M14 melanoma = tested on: M14 melanoma
ACHN renal = tested on: ACHN renal
SW-620 colon = tested on: SW-620 colon
OVCAR-8 ovarian = tested on: OVCAR-8 ovarian
SK-OV-3 ovarian = tested on: SK-OV-3 ovarian
SF-295 CNS = tested on: SF-295 CNS
TK-10 renal = tested on: TK-10 renal
CCRF-CEM leukemia = tested on: CCRF-CEM leukemia
A549 NSCLC = tested on: A549 NSCLC
EKVX NSCLC = tested on: EKVX NSCLC
MCF7 breast = tested on: MCF7 breast
COLO 205 colon = tested on: COLO 205 colon
SK-MEL-28 melanoma = tested on: SK-MEL-28 melanoma
HOP-62 NSCLC = tested on: HOP-62 NSCLC
NCI/ADR-RES ovarian = tested on: NCI/ADR-RES ovarian
OVCAR-5 ovarian = tested on: OVCAR-5 ovarian
786-0 renal = tested on: 786-0 renal
HCT-116 colon = tested on: HCT-116 colon
RXF 393 renal = tested on: RXF 393 renal
CAKI-1 renal = tested on: CAKI-1 renal
MALME-3M melanoma = tested on: MALME-3M melanoma
SF-539 CNS = tested on: SF-539 CNS
UACC-257 melanoma = tested on: UACC-257 melanoma
OVCAR-4 ovarian = tested on: OVCAR-4 ovarian
MDA-MB-435 = tested on: MDA-MB-435
IGROV1 ovarian = tested on: IGROV1 ovarian
NCI-H522 lung = tested on: NCI-H522 lung
NCI-H23 lung = tested on: NCI-H23 lung
UO-31 renal = tested on: UO-31 renal
SK-MEL-2 melanoma = tested on: SK-MEL-2 melanoma
K-562 leukemia = tested on: K-562 leukemia
OVCAR-3 ovarian = tested on: OVCAR-3 ovarian
T-47D breast = tested on: T-47D breast
MOLT-4 leukemia = tested on: MOLT-4 leukemia
SN12C renal = tested on: SN12C renal
BT-549 breast = tested on: BT-549 breast
SF-268 CNS = tested on: SF-268 CNS
A498 renal = tested on: A498 renal
HOP-92 NSCLC = tested on: HOP-92 NSCLC
NCI-H226 lung = tested on: NCI-H226 lung
HT29 colon = tested on: HT29 colon
RPMI-8226 leukemia = tested on: RPMI-8226 leukemia
PC-3 prostate = tested on: PC-3 prostate
SR leukemia = tested on: SR leukemia
SK-MEL-5 melanoma = tested on: SK-MEL-5 melanoma
HCT-15 colon = tested on: HCT-15 colon
DU-145 prostate = tested on: DU-145 prostate
MDA-MB-231 breast = tested on: MDA-MB-231 breast
SNB-19 CNS = tested on: SNB-19 CNS
UACC-62 melanoma = tested on: UACC-62 melanoma
HCC-2998 colon = tested on: HCC-2998 colon
NCI-H460 lung = tested on: NCI-H460 lung
HS 578T breast = tested on: HS 578T breast
SNB-75 CNS = tested on: SNB-75 CNS
HL-60(TB) leukemia = tested on: HL-60(TB) leukemia

Molecule O=c1c2ccc(Cl)cc2oc2c(CNc3ccc(S(=O)(=O)Nc4nccs4)cc3)cccc12 has a TGI (MDA-N) greater than 100 µM, a TGI (LOX IMVI melanoma) greater than 100 µM and a TGI (U251 CNS) greater than 100 µM. For the same molecule, the TGI (KM12 colon) was greater than 100 µM, the TGI (M14 melanoma) was greater than 100 µM and the TGI (ACHN renal) was greater than 100 µM. The TGI (SW-620 colon) was greater than 100 µM, the TGI (OVCAR-8 ovarian) was greater than 100 µM and the TGI (SK-OV-3 ovarian) was greater than 100 µM. For the same molecule, the TGI (SF-295 CNS) was greater than 100 µM, the TGI (TK-10 renal) was greater than 100 µM and the TGI (CCRF-CEM leukemia) was greater than 100 µM. For the same molecule, the TGI (A549 NSCLC) was greater than 100 µM, the TGI (EKVX NSCLC) was greater than 100 µM and the TGI (MCF7 breast) was greater than 100 µM. It also gave a TGI (COLO 205 colon) greater than 100 µM, a TGI (SK-MEL-28 melanoma) greater than 100 µM and a TGI (HOP-62 NSCLC) greater than 100 µM. It also gave a TGI (NCI/ADR-RES ovarian) greater than 100 µM, a TGI (OVCAR-5 ovarian) greater than 100 µM and a TGI (786-0 renal) greater than 100 µM. It also gave a TGI (HCT-116 colon) greater than 100 µM, a TGI (RXF 393 renal) greater than 100 µM and a TGI (CAKI-1 renal) of 5.51 µM. The TGI (MALME-3M melanoma) was greater than 100 µM, the TGI (SF-539 CNS) was greater than 100 µM and the TGI (UACC-257 melanoma) was greater than 100 µM. For the same molecule, the TGI (OVCAR-4 ovarian) was greater than 100 µM, the TGI (MDA-MB-435) was greater than 100 µM and the TGI (IGROV1 ovarian) was greater than 100 µM. For the same molecule, the TGI (NCI-H522 lung) was greater than 100 µM, the TGI (NCI-H23 lung) was greater than 100 µM and the TGI (UO-31 renal) was greater than 100 µM. For the same molecule, the TGI (SK-MEL-2 melanoma) was greater than 100 µM, the TGI (K-562 leukemia) was greater than 100 µM and the TGI (OVCAR-3 ovarian) was greater than 100 µM. It also gave a TGI (T-47D breast) greater than 100 µM, a TGI (MOLT-4 leukemia) greater than 100 µM and a TGI (SN12C renal) greater than 100 µM. For the same molecule, the TGI (BT-549 breast) was greater than 100 µM, the TGI (SF-268 CNS) was greater than 100 µM and the TGI (A498 renal) was greater than 100 µM. It also gave a TGI (HOP-92 NSCLC) greater than 100 µM, a TGI (NCI-H226 lung) greater than 100 µM and a TGI (HT29 colon) greater than 100 µM. For the same molecule, the TGI (RPMI-8226 leukemia) was greater than 100 µM, the TGI (PC-3 prostate) was greater than 100 µM and the TGI (SR leukemia) was greater than 100 µM. It also gave a TGI (SK-MEL-5 melanoma) greater than 100 µM, a TGI (HCT-15 colon) greater than 100 µM and a TGI (DU-145 prostate) greater than 100 µM. It also gave a TGI (MDA-MB-231 breast) greater than 100 µM, a TGI (SNB-19 CNS) greater than 100 µM and a TGI (UACC-62 melanoma) greater than 100 µM. It also gave a TGI (HCC-2998 colon) greater than 100 µM.
COc1cccc2c(Nc3ccc(S(=O)(=O)N=C(N)N)cc3)c3ccc([N+](=O)[O-])cc3nc12 was tested, and the TGI (MDA-N) was 61.1 µM, the TGI (LOX IMVI melanoma) was 57 µM and the TGI (U251 CNS) was greater than 100 µM. For the same molecule, the TGI (M14 melanoma) was greater than 100 µM, the TGI (ACHN renal) was 31.9 µM and the TGI (SW-620 colon) was greater than 100 µM. The TGI (OVCAR-8 ovarian) was greater than 100 µM, the TGI (SK-OV-3 ovarian) was greater than 100 µM and the TGI (SF-295 CNS) was greater than 100 µM. For the same molecule, the TGI (TK-10 renal) was greater than 100 µM, the TGI (CCRF-CEM leukemia) was 31.6 µM and the TGI (A549 NSCLC) was greater than 100 µM. The TGI (EKVX NSCLC) was greater than 100 µM, the TGI (MCF7 breast) was greater than 100 µM and the TGI (COLO 205 colon) was greater than 100 µM. It also gave a TGI (SK-MEL-28 melanoma) greater than 100 µM, a TGI (HOP-62 NSCLC) of 64.3 µM and a TGI (NCI/ADR-RES ovarian) greater than 100 µM. It also gave a TGI (OVCAR-5 ovarian) greater than 100 µM, a TGI (786-0 renal) of 46.7 µM and a TGI (HCT-116 colon) greater than 100 µM. For the same molecule, the TGI (RXF 393 renal) was greater than 100 µM, the TGI (CAKI-1 renal) was 32.1 µM and the TGI (MALME-3M melanoma) was 31.4 µM. It also gave a TGI (SF-539 CNS) greater than 100 µM, a TGI (UACC-257 melanoma) of 56.1 µM and a TGI (OVCAR-4 ovarian) greater than 100 µM. For the same molecule, the TGI (MDA-MB-435) was greater than 100 µM, the TGI (IGROV1 ovarian) was 31.4 µM and the TGI (NCI-H522 lung) was 36.5 µM. It also gave a TGI (NCI-H23 lung) of 52.3 µM, a TGI (UO-31 renal) of 44.7 µM and a TGI (SK-MEL-2 melanoma) of 37.6 µM. It also gave a TGI (K-562 leukemia) greater than 100 µM, a TGI (OVCAR-3 ovarian) greater than 100 µM and a TGI (T-47D breast) of 85.9 µM. For the same molecule, the TGI (MOLT-4 leukemia) was greater than 100 µM, the TGI (SN12C renal) was greater than 100 µM and the TGI (BT-549 breast) was 46.1 µM. The TGI (SF-268 CNS) was greater than 100 µM, the TGI (A498 renal) was 44.9 µM and the TGI (HOP-92 NSCLC) was greater than 100 µM. It also gave a TGI (NCI-H226 lung) greater than 100 µM, a TGI (HT29 colon) greater than 100 µM and a TGI (RPMI-8226 leukemia) of 86.5 µM. It also gave a TGI (PC-3 prostate) greater than 100 µM, a TGI (SR leukemia) of 70.7 µM and a TGI (SK-MEL-5 melanoma) of 45.5 µM. For the same molecule, the TGI (NCI-H460 lung) was greater than 100 µM, the TGI (HCT-15 colon) was greater than 100 µM and the TGI (DU-145 prostate) was greater than 100 µM. For the same molecule, the TGI (MDA-MB-231 breast) was 18 µM, the TGI (SNB-19 CNS) was greater than 100 µM and the TGI (UACC-62 melanoma) was 32.8 µM. For the same molecule, the TGI (HCC-2998 colon) was 87.2 µM.
Molecule CC1(C)CN=C(Nc2ccc(F)cc2)S1 has a TGI (MDA-N) greater than 100 µM, a TGI (LOX IMVI melanoma) greater than 100 µM and a TGI (U251 CNS) greater than 100 µM. The TGI (KM12 colon) was greater than 100 µM, the TGI (M14 melanoma) was greater than 100 µM and the TGI (ACHN renal) was greater than 100 µM. The TGI (SW-620 colon) was greater than 100 µM, the TGI (OVCAR-8 ovarian) was greater than 100 µM and the TGI (SK-OV-3 ovarian) was greater than 100 µM. It also gave a TGI (SF-295 CNS) greater than 100 µM, a TGI (TK-10 renal) greater than 100 µM and a TGI (CCRF-CEM leukemia) greater than 100 µM. The TGI (A549 NSCLC) was greater than 100 µM, the TGI (EKVX NSCLC) was greater than 100 µM and the TGI (MCF7 breast) was greater than 100 µM. It also gave a TGI (COLO 205 colon) greater than 100 µM, a TGI (SK-MEL-28 melanoma) greater than 100 µM and a TGI (HOP-62 NSCLC) greater than 100 µM. The TGI (NCI/ADR-RES ovarian) was greater than 100 µM, the TGI (OVCAR-5 ovarian) was greater than 100 µM and the TGI (786-0 renal) was greater than 100 µM. For the same molecule, the TGI (HCT-116 colon) was greater than 100 µM, the TGI (HS 578T breast) was greater than 100 µM and the TGI (RXF 393 renal) was greater than 100 µM. For the same molecule, the TGI (CAKI-1 renal) was greater than 100 µM, the TGI (MALME-3M melanoma) was greater than 100 µM and the TGI (SF-539 CNS) was greater than 100 µM. It also gave a TGI (UACC-257 melanoma) greater than 100 µM, a TGI (OVCAR-4 ovarian) greater than 100 µM and a TGI (MDA-MB-435) greater than 100 µM. It also gave a TGI (IGROV1 ovarian) greater than 100 µM, a TGI (NCI-H522 lung) greater than 100 µM and a TGI (NCI-H23 lung) greater than 100 µM. The TGI (UO-31 renal) was greater than 100 µM, the TGI (SK-MEL-2 melanoma) was greater than 100 µM and the TGI (K-562 leukemia) was greater than 100 µM. The TGI (OVCAR-3 ovarian) was greater than 100 µM, the TGI (T-47D breast) was greater than 100 µM and the TGI (MOLT-4 leukemia) was greater than 100 µM. It also gave a TGI (SN12C renal) greater than 100 µM, a TGI (BT-549 breast) greater than 100 µM and a TGI (SF-268 CNS) greater than 100 µM. For the same molecule, the TGI (SNB-75 CNS) was greater than 100 µM, the TGI (HOP-92 NSCLC) was greater than 100 µM and the TGI (HL-60(TB) leukemia) was greater than 100 µM. It also gave a TGI (NCI-H226 lung) greater than 100 µM, a TGI (HT29 colon) greater than 100 µM and a TGI (RPMI-8226 leukemia) greater than 100 µM. For the same molecule, the TGI (PC-3 prostate) was greater than 100 µM, the TGI (SR leukemia) was greater than 100 µM and the TGI (SK-MEL-5 melanoma) was greater than 100 µM. It also gave a TGI (HCT-15 colon) greater than 100 µM, a TGI (DU-145 prostate) greater than 100 µM and a TGI (SNB-19 CNS) greater than 100 µM. The TGI (UACC-62 melanoma) was greater than 100 µM and the TGI (HCC-2998 colon) was greater than 100 µM.
